Experimental data as given in patent US20200323772A1, “TREATMENT OF INFLAMMATORY DISEASE USING INGESTIBLE DEVICE TO RELEASE IMMUNE MODULATOR” (Progenity, Inc., priority 2017, published 2020).

Experiments:
[1] = Tissue, plasma, rectal and GI content pharmacokinetics of tacrolimus, oral vs intra-cecal ingestible device (Example 10); parameters: species or system Yorkshire-Cross farm swine; conditions: in vivo
Method: The primary objective of this study was to compare the tissue, plasma, rectal sample, and GI content pharmacokinetics of tacrolimus through oral versus intra-cecal ingestible device delivery in normal Yorkshire-Cross farm swine.
(§1) No further randomization procedure was employed.
Animals in Group 1 received an ingestible device containing 0.8 mL of vehicle solution (80% alcohol, 20% HCO-60). Animals in Group 2 received orally […] liquid formulation of tacrolimus at 4 mg/0.8 mL per animal (Prograf: 5 mg/mL). Animals in Group 3 received intra-cecally an ingestible device containing tacrolimus at 1 mg in 0.8 mL per ingestible device. Animals in Group 4 received intra-cecally an ingestible device containing tacrolimus at 2 mg in 0.8 mL per ingestible device. Animals in Group 5 received intra-cecally an ingestible device containing tacrolimus at 4 mg in 0.8 mL per ingestible device. To control for potential confounding effects of the surgery, all groups fast on Day −11 at least 24 hr before being subjected to anesthesia followed by surgical placements of a cecal port by a veterinary surgeon at Day −10. All animals were fasted for at least 12 hr prior to dosing on Day 1. Animals were dosed via either intra-cecal dosing (IC) or oral dosing (PO) at Day 1 (between 6-8 p.m.). All animals resumed feeding at approximately 4 hours after dose ([…]. after dosing).
Animals in Group 1 (Vehicle Control) were administered a single intra-cecal ingestible device containing 0.8 mL Vehicle solution (80% alcohol, 20% castor oil (HCO-60) on Day 1. On Day −10 the animals were anesthetized, and a veterinary surgeon surgically placed an intra-cecal port in each animal. On Day 1, each animal was placed into a sling then a single intra-cecal ingestible device containing 0.8 mL vehicle solution (80% alcohol, 20% castor oil (HCO-60)) is introduced by the veterinary surgeon into the cecum via the cecal port in each animal. Following ingestible device placement, the animals were removed from the slings and placed back into their pens with water. All animals resumed feeding at approximately 4 hours after dose. […] A total of 60 samples were collected.
Approximately 200˜400 mg of rectal content were collected, if available, with a fecal swab (Copan Diagnostics Nylon Flocked Dry Swabs, 502CS01). The fecal swab was pre-weighed and weighed after collection in the collection tube (Sterile Tube and Cap No Media, PFPM913S), and the sample weight was recorded. The fecal swab was broken via the breakpoint, and was stored in the collection tube, and immediately frozen at −70° C. […] Immediately following euthanasia, tissue was collected.
For tissue necropsy, small intestine fluid and cecal fluid were collected separately from all the animals into two separate square plastic bottles, and stored at −20° C. The length and diameter of the cecum and the colon was measured from one animal in each group and recorded for reference. Tissues were collected for pharmacokinetic analyses and include mesenteric lymph nodes, a Peyer's Patch, and five gastrointestinal sections, including cecum, proximal colon, transverse colon, distal colon, and rectum. All samples were weighed, and the tissue sample weights were recorded. […] Around 3 grams of the total punched sample were collected into a pre-weighed 15-mL conical tube, and the tissue weight was recorded. […]

[2] = Pharmacokinetic study of oral vs intra-cecal tacrolimus: blood, GI tissue, luminal and rectal content concentrations (Example 13); parameters: species or system Yorkshire-Cross farm swine; conditions: in vivo, 0.09 mg/kg
Text: as §1

[3] = female, Yorkshire-Cross, pig, po
[4] = female, Yorkshire-Cross, pig, po, 12 h

## C=CC[C@@H]1/C=C(\C)C[C@H](C)C[C@H](OC)[C@H]2O[C@@](O)(C(=O)C(=O)N3CCCC[C@H]3C(=O)O[C@H](/C(C)=C/[C@@H]3CC[C@@H](O)[C@H](OC)C3)[C@H](C)[C@@H](O)CC1=O)[C@H](C)C[C@@H]2OC [tacrolimus]
[1]; [3]
  systemic concentrations: equivalent to low dose IC group (0.02 mg/kg)
[1]
  luminal content (spiral, transverse, and distal colon) concentrations: Significantly higher
  mean concentration in the cecum tissue and the proximate colon tissue: higher
  tissue (spiral and transverse colon) concentrations: Significantly higher
[1]; po
  level in tissue: No measurable level
[2]; [3]
  Kp at 12 h: 0
[2]; [4]
  Tissue (mean) (ng/g)/AUG(0-12 hr)(ng·hr/ml) Ratio: 0
  Tissue (mean) (ng/g)/Trough(12 hr)(ng/ml) Ratio: 0
  Trough (12 hr): 0.568 ng/mL
[2]; female, Yorkshire-Cross, pig, po, Trough (12 hr)
  concentration at 12 h: 0.568 ng/mL
[2]
  AUC0-12 hours in the blood: higher
  mean concentration in the blood: higher
